Test results: patent US6074626A (Molecular Radiation Management, Inc., priority 1999, dated 2000)
Where “and” joins values, the source holds several entries; their conditions need not be identical. Equal entries are not always repeated.

How the values were obtained:
[1] = tested on: hepatoma; details: given systemically; cited from earlier work
[2] = tested on: viable hepatoma; assay: Diagnostic quantitation of tumor uptake by ^195m cisplatinum gamma camera imaging after HAI; format: in vivo, patients
Procedure: (§1) The rationale for HAI cisplatinum was evaluated in a diagnostic quantitative study trial utilizing radioactive ^195m cisplatinum. The radiopharmaceutical was prepared using a ^194 Pt target and irradiation from neutron flux in a fission reactor (45,46). […] The study was approved by the institutional review board and radiation safety committee of Cooper Hospital University Medical Center for use of up to a 1.0 mCi dose of ^195m cisplatinum, delivered intra-arterially. Institutional Review Board approved informed consent documents were signed by all patients participating in this study.
Platinum-195m is a radionuclide with a physical half-life of 4.02 days. As it decays by isomeric transition it emits several photons imageable by scintillation camera. Six patients were imaged thirty minutes after administration of ^195m cisplatinum (252-1011 μCi) using a dual-head gamma camera system equipped with low-energy parallel-hole collimators. The camera was peaked at 76 keV with an energy window setting of 37%. […] Tumors and normal liver containing Pt-195m uptake were identified and appropriate regions of interest drawn. The method used for quantitation of the radioactivity utilized conjugate view images (180° opposed anterior and posterior planar images). Prior to patient studies a phantom study was performed under fixed geometry to determine a correction factor for patient attenuation and scatter and a system calibration factor. The phantom consisted of a simulated tumor containing 277.5 μCi of Pt-195m in an abdominal phantom filled with water to simulate patient attenuation and scatter. […] The activities determined from the conjugate view counting technique were divided by the administered activity and multiplied by 100 to obtain the percent tumor uptakes. Tumor-to-normal liver ratios were determined from the various regions of interest.
(§2) Because of a high response rate to intra-arterial cisplatinum compared to intravenous delivery a study was done to estimate whether there was a differential tumor uptake of cisplatinum. Patients were given similar tracer doses of ^195m cisplatinum, first intravenously then by HAI. It was estimated that the maximum dose for this diagnostic quantitative trial would be 1.0 mCi, which would yield an estimated absorbed dose no greater than 5 centigray to the kidneys and therefore not cause toxicity. […] FIG. 6 is an example of their gamma camera study done the same day following the intra-arterial injection of 1.0 mCi ^195 Pt cisplatinum. […] Table 4 summarizes the data for this diagnostic quantitative trial following HAI of ^195m cisplatinum. As shown, the mean tumor uptake was 48.4% (range 34.2-55.4%) of the given activity and the mean ratio of tumor-to-liver uptake was 2.1 (range 1.6-2.4).

[3] = tested on: tumor (hepatoma); assay: Scintigraphic scans of 195^m cisplatin given intravenously and intra-arterially to the same patient; format: in vivo
Text: When the drug was given intravenously,less than five percent deposited in the tumor. When the drug was given intra-arterially, 35 to 40 percent of the drug deposited in the tumor, as witnessed by scintigraphic scans.
as §2

[4] = Safety of ^195m cisplatinum given by HAI; format: in vivo; details: six patients
Procedure: as §1
as §2, with “As shown, the mean tumor uptake was 48.4% (range 34.2-55.4%) of the given activity and the mean ratio of tumor-to-liver uptake was 2.1 (range 1.6-2.4).” left out

[5] = tested on: non-resectable hepatocellular carcinoma; assay: Remission and survival of hepatoma patients treated monthly with hepatic artery infusion (HAI) of cisplatinum at 50 mg/m^2; format: in vivo; details: intra-arterial, 50 mg/m^2, 28 patients
[6] = tested on: non-resectable hepatocellular carcinoma; assay: as above; format: in vivo; parameters: median survival, increase over the six months reported from other regimens: unit not given here; details: for survival: one patient
Text: Patient population: All patients were required to have histologic documentation of hepatocellular carcinoma. Pre-treatment evaluation included a complete medical history and physical examination, hepatitis virus status and complete blood cell counts, biochemical survey including lactate dehydrogenase, alkaline phosphatase, BUN, creatinine, bilirubin, PT/PTT and alpha fetoprotein (AFP) level; radiographic studies including CT scans of the chest, abdomen and pelvis with volumetric reconstruction of both tumor and normal liver volumes allowed determination of percentage of liver replacement by tumor. The presence of ascites was determined using both clinical examination and imaging results. Excluded were patients with a creatinine >1.5 and/or BUN >25. All patients gave written informed consent. Prior to referral to our facility 23 patients (34%) had multiple chemotherapeutic regimens. Of the 67 patients, 44 (65%) were treated with external beam radiation to the involved liver as a component of the prescribed treatment program. Assessment of liver function was done using the modified Childs-Pugh classification (41). The American Joint Committee on Cancer staging system was used to stage tumor extent in all patients (42). […]
Intrahepatic arterial chemotherapy: The infusion was performed either with a temporary percutaneous femoral or axillary artery catheter or implanted port or pump. On the day prior to treatment the patients were instructed to take 1 to 2 liters of fluid orally. On admission, 1 liter of 5% dextrose in normal saline with 20 meq potassium was given intravenously. Utilizing a femoral or axillary artery transcutaneous approach an arteriogram of the common hepatic artery was done. Next, cisplatinum 50 mg/m^2 was dissolved to a concentration of 1 mg per ml of sterile water. The solution was then infused intra-arterially at a rate of 1 mg/minute. The chemotherapy was always infused into the most distal artery feeding the main mass of the tumor. Appropriate antiemetic therapy, generally Odansetron 0.15 mg/kg IV and dexamethasone 20 mg IV was administered before the cisplatinum infusion and as needed after the infusion. On discharge home patients were given an oral antiemetic regimen of Lorazepam 1 mg, every six hours, or Odansetron 8 mg every twelve hours, as needed and Dexamethasone 4 mg every six hours for one day. Patients continued monthly HAI of cisplatinum until evidence of progressive disease or death. All patients were assessable for response.
Assessment of response: Routine clinical examinations and laboratory testing were performed at monthly intervals or as clinically indicated. The defined improvements on a minimum of two CT scans and/or AFP titers obtained at least two months apart were required to delineate response. Tumor volumes were quantified by computed tomography scan volumetric analysis of the liver as previously reported (20,43). Complete remission was the disappearance of all clinical evidence of tumor for a minimum of one month. Partial remission was a decrease of 50% or more in the volume of all measurable lesions measured on contrast-enhanced CT scan or a ≥50% reduction in AFP titer. Stable disease was a <50% decrease or <25% increase in tumor volume or AFP titer. Progressive disease was the increase of at least 25% in the tumor volume of all measurable lesions on CT scan or by AFP titer. Toxicity was assessed monthly during HAI therapy using RTOG criteria (44) with scores ≥3 considered to be major toxicities.
Statistical methods: The log-rank procedure was used to test for any statistical differences in survival distribution between patient populations (47). Survival curves were generated by the Kaplan Meier technique (48). Each survival curve was plotted as a step function of the Kaplan-Meier estimates.
Intra-arterial hepatic infusions were given to 67 patients with non-resectable hepatocellular carcinoma treated between July 1991 and September 1997. […]

[7] = tested on: hepatocellular carcinoma; details: intravenous, cited from earlier work
[8] = tested on: hepatocellular carcinoma; details: subcutaneously; untreated controls 4 months; cited from earlier work
[9] = HAI, per patient (b206-b211 = patients 1-6), thirty minutes after administration
[10] = intra-arterial, tracer quantities
[11] = HAI after failing previous therapy, disease confined to liver, AFP (+)
[12] = HAI after failing previous therapy, disease confined to liver, AFP (-)

SMILES: O=c1[nH]cc(F)c(=O)[nH]1 [5-FU, 5-fluorouracil]
- effectiveness [1]: inconsistently effective

SMILES: [NH2][195Pt]([NH2])([Cl])[Cl] [^195m cisplatinum]
- concentration in viable hepatoma (imaging) ([2]; HAI): hyperconcentration
- Tumor uptake [2, 9]: 55.4% and 49.6% and 52.8% and 48.3% and 34.2% and 50.3%
- Tumor-to-liver uptake ratio [2, 9]: 1.6 and 2.3 and 2.4 and 2.1 and 2.0
- Tumor activity ([2]; HAI, per patient (b206-b211 = patients 1-6), thirty minutes after administration, administered 252-1011 μCi): 140 μCi and 501 μCi and 528 μCi and 489 μCi and 343 μCi and 503 μCi
- mean ratio of tumor-to-liver uptake ([2]; HAI, six patients): 2.1
- mean tumor uptake of the given activity ([2]; HAI, six patients): 48.4%
- range of ratio of tumor-to-liver uptake ([2]; HAI, six patients): 1.6-2.4
- range of tumor uptake of the given activity ([2]; HAI, six patients): 34.2-55.4%
- exposure of the tumor vs intravenous route ([2]; intra-arterial, tracer amounts): selectively exposes the tumor to higher drug levels than can be achieved by the intravenous route
- kinetics [2, 10]: first-pass kinetics
- selective tumor uptake [2, 10]: 34-55 % of administered dose
- drug deposited in the tumor ([3]; intravenous): less than five
- adverse events [4]: no adverse events occurred

SMILES: N.N.[Cl][Pt][Cl] [cisplatin, cisdiamminedichloroplatinum]
- remission [5]: 50%
- median survival ([6]; AFP positive patients, as compared with octreotide study): 12 months
- alive at one year [6, 11]: 56%
- median survival [6, 11]: 17.3 months
- alive at one year [6, 12]: 75%
- median survival [6, 12]: 46.3 months
- median survival ([6]; HAI after prior treatment failure, extra-hepatic metastases, AFP (+)/elevated): 8.9 months
- median survival ([6]; HAI after prior treatment failure, extra-hepatic metastases, AFP (-)/not elevated): 11.1 months
- median survival ([6]; HAI as primary therapy, disease confined to liver, AFP (+)): 12.0 months
- median survival ([6]; HAI as primary therapy, disease confined to liver, AFP (-)): 17.5 months
- median survival ([6]; HAI as primary therapy, extra-hepatic metastases, AFP (+)/elevated): 7.1 months
- survival ([6]; HAI as primary therapy, extra-hepatic metastases, AFP (-)/not elevated, listed as HAI-CDDP): 21.0 months
- survival ([6]; HAI as primary therapy, extra-hepatic metastases, AFP (-)/not elevated, listed as cisplatinum): 21 months
- long term remission ([6]; HAI, 50 mg/m^2): long term remission can be obtained
- median survival ([6]; HAI, AFP (+), all patients): 10.3 months
- overall survival at one year ([6]; HAI, AFP (+), all patients): 45%
- overall survival at one year ([6]; HAI, AFP (-), all patients): 59%
- median survival ([6]; HAI, AFP (-), all patients, listed as cisplatinum): 21.8 months and 21 months
- median survival ([6]; HAI, chronic Hepatitis B or C, regardless of AFP status): 10.7 months
- significance of overall survival difference AFP (+) vs AFP (-) ([6]; HAI, log rank): significantly different
- overall median survival ([6]; HAI, present study group): 10.3 months
- response rate ([6]; arterial route): ≥ 50%
- response ([6]; intra-arterial, 67 patients): 50%
- remission ([6]; intra-arterial, 95 patients combined): 50%
- median survival, increase over the six months reported from other regimens ([6]; worst group of hepatomas (AFP+ positive), intra-arterial): one
- binding on the hepatoma, persistence ([3]; intra-arterial): apparently stays there for a persistent period of time
- response rate [7]: less than five
- response rate (in words) ([7]; single drug): relatively poor response rate

SMILES: CO[C@@]12[C@H](COC(N)=O)C3=C(C(=O)C(C)=C(N)C3=O)N1C[C@@H]1N[C@@H]12 [mitomycin]
- effectiveness [1]: inconsistently effective

SMILES: C[C@@H](O)[C@@H]1NC(=O)[C@H](CCCCN)NC(=O)[C@@H](Cc2c[nH]c3ccccc23)NC(=O)[C@H](Cc2ccccc2)NC(=O)[C@@H](NC(=O)[C@H](N)Cc2ccccc2)CSSC[C@@H](C(=O)N[C@H](CO)[C@@H](C)O)NC1=O [octreotide]
- median survival [8]: 13 months
